Measurements from article PMC9578396, “Intrinsic Antibacterial Activity of Xeruborbactam In Vitro: Assessing Spectrum and Mode of Action” (Antimicrobial Agents and Chemotherapy, 2022).
Read-outs that look alike come from different tables or passages of the source.

Assays:
Assay type in all cases: cell-based
[1] = test system: Escherichia coli; test: Broth microdilution MIC (CLSI), Escherichia coli; details: Escherichia coli
Description: (§1) (i) Panels of engineered bacterial strains containing various combinations of porin and efflux mutations were used. The construction of all the strains used in the study is described in detail in references, [44], and [45]. (ii) KPC-producing clinical isolates and their derivatives that lost KPC plasmids were used also. These strains and their origins are described in the Table S2. (iii) Finally, KPC-producing clinical isolates enriched in strains with porin mutations were used. The mutations identified include various deletions, insertions, nonsense mutations, and decreased expression. Most of the isolates were obtained from JMI Laboratories or International Health Management Associates (IHMA); they were collected in the course of global surveillance studies.
(§2) Bacterial isolates were subjected to broth microdilution susceptibility testing, performed according to Clinical and Laboratory Standards Institute (CLSI) methods ([46]), using panels prepared in-house. […] Xeruborbactam was synthesized at Qpex Biopharma, San Diego, CA. Avibactam was purchased from eNovation Chemicals LLC, Bridgewater, NJ, USA; zidebactam was from MedKoo Biosciences, Inc., Morrisville, NC, and nacubactam was from Advanced ChemBlocks, Hayward, CA. Durlobactam was synthesized at Acme Bioscience, Palo Alto, CA, USA.

[2] = test system: Klebsiella pneumoniae; test: microbe, parasite or virus in culture
Description: as §1, §2

[3] = test system: Acinetobacter baumannii; test: Broth microdilution MIC (CLSI), Acinetobacter baumannii; details: Acinetobacter baumannii
Description: as §1, §2

[4] = test system: Pseudomonas aeruginosa; test: Broth microdilution MIC (CLSI), Pseudomonas aeruginosa
Description: as §1, §2

[5] = strain ECM5497, wild type, read-out: MIC
[6] = strain ECM6502, marR (AcrAB overexpression)
[7] = Klebsiella pneumoniae, KPM1026a, parent, read-out: MIC
[8] = Klebsiella pneumoniae, KPM3532, TolQ::M189K
[9] = Klebsiella pneumoniae, KPM3534, TolQ::S31F
[10] = Klebsiella pneumoniae, KPM4235, TolQ::IP(183–1844)PR
[11] = Klebsiella pneumoniae, KPM4236, TolQ::TAA at aa 103
[12] = Klebsiella pneumoniae, KPM4238, TolQ::S25F
[13] = Klebsiella pneumoniae, KPM4239, TolQ::S28F
[14] = Klebsiella pneumoniae, KPM4240, TolQ::S25Y
[15] = Klebsiella pneumoniae, strain KPM1026a, wild type, read-out: MIC
[16] = Klebsiella pneumoniae, strain KPM1027, ramR, read-out: MIC
[17] = Klebsiella pneumoniae, strain KPM1171, ramR ompK36_1171, read-out: MIC
[18] = Klebsiella pneumoniae, strain KPM2040, ompK36_2040, read-out: MIC
[19] = Klebsiella pneumoniae, strain KPM2600, ΔompK35
[20] = Klebsiella pneumoniae, strain KPM2613, ΔompK35 ompK36_2040
[21] = Klebsiella pneumoniae, strain KPM2696, ΔacrB
[22] = strain AB1007, wild type, read-out: MIC
[23] = strain ACM1015, ΔadeIJK ΔadeABC
[24] = strain ACM1027, adeN (AdeIJK overexpression)
[25] = strain ACM1030, adeS (AdeABC overexpression)
[26] = Pseudomonas aeruginosa, strain PAM1020, wild type, read-out: MIC
[27] = Pseudomonas aeruginosa, strain PAM1032, nalB (MexAB-OprM overexpression)
[28] = Pseudomonas aeruginosa, strain PAM1033, nfxB (MexCD-OprJ overexpression)
[29] = Pseudomonas aeruginosa, strain PAM1034, nfxC (MexEF-OprN overexpression)
[30] = Pseudomonas aeruginosa, strain PAM1106, mexA::Tet
[31] = Pseudomonas aeruginosa, strain PAM1154, oprM::Hg

SMILES: NC(=O)[C@@H]1CC[C@@H]2CN1C(=O)N2OS(=O)(=O)O [Avibactam]
- MIC [1, 5]: 16 µg/mL
- MIC ([1]; strain ECM6001, ΔacrB): 16 µg/mL
- MIC [1, 6]: 8 µg/mL
- MIC [2, 7]: 16 µg/mL
- MIC [2, 8]: > 64 µg/mL
- MIC [2, 9]: > 64 µg/mL
- MIC [2, 10]: > 64 µg/mL
- MIC [2, 11]: > 64 µg/mL
- MIC [2, 12]: > 64 µg/mL
- MIC [2, 13]: > 64 µg/mL
- MIC [2, 14]: > 64 µg/mL
- MIC [2, 15]: 16 µg/mL
- MIC [2, 16]: 16 µg/mL
- MIC [2, 17]: > 256 µg/mL
- MIC [2, 18]: 256 µg/mL
- MIC [2, 19]: 16 µg/mL
- MIC [2, 20]: 256 µg/mL
- MIC [2, 21]: 16 µg/mL
- MIC [3, 22]: > 256 µg/mL
- MIC ([3]; strain ACM1013, ΔadeIJK): > 256 µg/mL
- MIC ([3]; strain ACM1014, ΔadeABC): > 256 µg/mL
- MIC [3, 23]: > 256 µg/mL
- MIC [3, 24]: > 256 µg/mL
- MIC [3, 25]: > 256 µg/mL
- MIC ([4]; Pseudomonas aeruginosa, after inactivation of MexAB-OprM, read-out: MIC): 128 µg/mL
- MIC ([4]; Pseudomonas aeruginosa, before inactivation of MexAB-OprM (wild type), read-out: MIC): > 256 µg/mL
- MIC [4, 26]: > 256 µg/mL
- MIC [4, 27]: > 256 µg/mL
- MIC [4, 28]: 32 µg/mL
- MIC [4, 29]: > 256 µg/mL
- MIC [4, 30]: 128 µg/mL
- MIC [4, 31]: 128 µg/mL

SMILES: CO/N=C(\C(=O)N[C@@H]1C(=O)N2C(C(=O)[O-])=C(C[N+]3(C)CCCC3)CS[C@H]12)c1csc(N)n1 [Cefepime]
- MIC [1, 5]: 0.03 µg/mL
- MIC ([1]; strain ECM6001, ΔacrB): 0.03 µg/mL
- MIC [1, 6]: 0.125 µg/mL
- fold below the MIC that corresponds to complete inhibition of KPC ([2]; KP1074, in the presence of 8 μg/mL xeruborbactam): 2- to 8 fold
- MIC ([2]; KP1074, with xeruborbactam 2 µg/ml): 0.5 µg/mL
- MIC ([2]; KP1074, with xeruborbactam 4 µg/ml): 0.25 µg/mL
- MIC ([2]; KP1074, with xeruborbactam 8 µg/ml): 0.125 µg/mL
- MIC ([2]; KPM1026a (no beta-lactamase), xeruborbactam 0 µg/ml): 0.03 µg/mL
- fold decrease compared to MIC of antibiotic alone ([2]; KPM1026a, with xeruborbactam at 4 μg/mL): 2 fold
- fold decrease compared to MIC of antibiotic alone ([2]; KPM1026a, with xeruborbactam at 8 μg/mL): 16 fold
- MIC ([2]; KPM1026a, xeruborbactam 2 µg/ml): 0.015 µg/mL
- MIC ([2]; KPM1026a, xeruborbactam 4 µg/ml): 0.015 µg/mL
- MIC ([2]; KPM1026a, xeruborbactam 8 µg/ml): 0.002 µg/mL
- fold decrease compared to MIC of antibiotic alone ([2]; KPM3532 (TolQ::M189K), with xeruborbactam at 4 μg/mL): 2 fold
- fold decrease compared to MIC of antibiotic alone ([2]; KPM3532 (TolQ::M189K), with xeruborbactam at 8 μg/mL): 4 fold
- fold decrease compared to MIC of antibiotic alone ([2]; KPM3534 (TolQ::S31F), with xeruborbactam at 4 μg/mL): 4 fold
- fold decrease compared to MIC of antibiotic alone ([2]; KPM3534 (TolQ::S31F), with xeruborbactam at 8 μg/mL): 8 fold
- MIC ([2]; Klebsiella pneumoniae, BAA2814, KPC-3-producing KP1074 (BAA-2814), xeruborbactam none, read-out: MIC): 256 µg/mL
- MIC ([2]; Klebsiella pneumoniae, KPM1026a, alone, read-out: MIC): 0.03 µg/mL
- MIC [2, 7]: 0.03 µg/mL
- MIC ([2]; Klebsiella pneumoniae, KPM1211 (KP1074 after loss of pKpQIL), read-out: MIC): 0.5 µg/mL
- MIC ([2]; Klebsiella pneumoniae, KPM1271 (KPM1026a/KPC-3), alone, read-out: MIC): 4 µg/mL
- MIC ([2]; Klebsiella pneumoniae, KPM1281 (KPM1026a/NDM-1), alone, read-out: MIC): 16 µg/mL
- MIC ([2]; Klebsiella pneumoniae, KPM3532 (TolQ::M189K), alone): 0.06 µg/mL
- MIC [2, 8]: 0.06 µg/mL
- MIC ([2]; Klebsiella pneumoniae, KPM3534 (TolQ::S31F), alone): 0.125 µg/mL
- MIC [2, 9]: 0.125 µg/mL
- MIC ([2]; Klebsiella pneumoniae, KPM4127 (KPM3532 TolQ::M189K/KPC-3), alone): 8 µg/mL
- MIC ([2]; Klebsiella pneumoniae, KPM4128 (KPM3534 TolQ::S31F/KPC-3), alone): 32 µg/mL
- MIC ([2]; Klebsiella pneumoniae, KPM4129 (KPM3532 TolQ::M189K/NDM-1), alone): 8 µg/mL
- MIC ([2]; Klebsiella pneumoniae, KPM4130 (KPM3534 TolQ::S31F/NDM-1), alone): 32 µg/mL
- MIC [2, 10]: 0.125 µg/mL
- MIC [2, 11]: 0.125 µg/mL
- MIC [2, 12]: 0.125 µg/mL
- MIC [2, 13]: 0.125 µg/mL
- MIC [2, 14]: 0.125 µg/mL
- MIC [2, 15]: 0.03 µg/mL
- MIC [2, 16]: 0.25 µg/mL
- MIC [2, 17]: 2 µg/mL
- MIC [2, 18]: 0.125 µg/mL
- MIC [2, 19]: 0.25 µg/mL
- MIC [2, 20]: 0.25 µg/mL
- MIC [2, 21]: 0.03 µg/mL
- MIC ([3]; AB1007 (no beta-lactamase), xeruborbactam 0 µg/ml, read-out: MIC): 2 µg/mL
- MIC ([3]; AB1007, xeruborbactam 2 µg/ml, read-out: MIC): 2 µg/mL
- MIC ([3]; AB1007, xeruborbactam 4 µg/ml, read-out: MIC): 1 µg/mL
- MIC ([3]; AB1007, xeruborbactam 8 µg/ml, read-out: MIC): 0.25 µg/mL
- MIC [3, 22]: 4 µg/mL
- MIC ([3]; strain ACM1013, ΔadeIJK): 4 µg/mL
- MIC ([3]; strain ACM1014, ΔadeABC): 1 µg/mL
- MIC [3, 23]: 0.25 µg/mL
- MIC [3, 24]: 8 µg/mL
- MIC [3, 25]: 32 µg/mL
- MIC ([4]; PAM1154 (oprM::Hg), xeruborbactam 0 µg/ml): 0.5 µg/mL
- MIC ([4]; PAM1154, xeruborbactam 2 µg/ml): 0.125 µg/mL
- MIC ([4]; PAM1154, xeruborbactam 4 µg/ml): 0.125 µg/mL
- MIC ([4]; PAM1154, xeruborbactam 8 µg/ml): 0.06 µg/mL
- MIC [4, 26]: 0.5 µg/mL
- MIC [4, 27]: 4 µg/mL
- MIC [4, 28]: 4 µg/mL
- MIC [4, 29]: 0.5 µg/mL
- MIC [4, 30]: 0.25 µg/mL
- MIC [4, 31]: 0.125 µg/mL
